Reference: patent publication US11584759B2, “Macrocyclic kinase inhibitor” (HITGEN INC., priority 2018, dated 2023)

Assays:
[1] = test system: Ba/F3 ETV6-NTRK3-G623R cell line; assay: Cell experiment, CellTiter-Glo viability, Ba/F3 ETV6-NTRK3-G623R; type: cell-based; conditions: Mus musculus, BaF3, 72 hours, CTG
Method: (§1) Cell culture and seeding: (1) cells in logarithmic growth phase were harvested and counted using a […]. The cell viability was detected by trypan blue exclusion method to ensure that the cell viability was above 90%. (2) The cell concentration was adjusted; and 90 μl of cell suspension was added to the 96-well plate.
(§2) 10 μl of drug solution was added to each well in a 96-well plate inoculated with cells, triplicate per concentration.
(§3) End-point for reading: (1) The CTG reagent was thawed and the cell plate was equilibrated to room temperature for 30 minutes. (2) Equal volume of CTG solution was added to each well. (3) The plated was shaken on an orbital shaker for 5 minutes to lyse the cells. (4) The cell plate was placed at room temperature for 20 minutes to stabilize the cold light signal. (5) The cold light value was read.
(§4) GraphPad Prism 7.0 software was used to analyze the data, and nonlinear S-curve regression was fitted the data to get the dose-effect curve, and the IC50 value was calculated therefrom. Cell survival (%)=(Lumtest drug−Lumculture control)/(Lumcell control−Lumculture control)×100%.

[2] = test system: Ba/F3 LMNA-NTRK1-G595R cell line; assay: Cell experiment, CellTiter-Glo viability, Ba/F3 LMNA-NTRK1-G595R; type: cell-based; conditions: Mus musculus, BaF3, 72 hours, CTG
Method: as §1, §2, §3, §4

[3] = test system: Ba/F3 LMNA-NTRK1-F589L cell line; assay: Cell experiment, CellTiter-Glo viability, Ba/F3 LMNA-NTRK1-F589L; type: cell-based; conditions: Mus musculus, BaF3, 72 hours, CTG
Method: as §1, §2, §3, §4

TRKA Protein (wild type) = biological target: T1, TRKA Protein (wild type) (Homo sapiens, UniProt P04629); assay: Detection of TRK inhibitory activity (ADP-Glo kinase assay), TRKA wild type; type: biochemical; conditions: 35 min at room temperature
T1 construct: purchased abcam ab60887
Method: (§5) An enzyme reaction buffer was prepared containing 25 mM MOPS, 5 mM MgCl2, 500 μM DTT and 0.005% Triton, and then adjusted to pH 7.5.
(§6) The test compound was diluted with DMSO to 200 times of the desired final concentration, and mixed evenly, then 3 μL of the solution was pipetted to 117 μL of enzyme reaction buffer and mixed thoroughly. Then, 3 μL of the enzyme reaction buffer containing the test compound was pipetted to a 96-well PCR plate. The positive and negative control wells were filled with 3 μL of enzyme reaction buffer containing 2.5% DMSO, respectively. TRK protein was diluted to 0.4 ng/μL with the enzyme reaction buffer, and 6 μL of diluted TRK protein was added to each well except for the well for the blank control group, in which 6 μL of the enzyme reaction buffer was added. The reaction plate was centrifuged at 1000 rpm/min for 1 minute, and the compound and TRK were pre-incubated at room temperature for 10 minutes. A mixed solution with ATP at a concentration of 160 μM and substrate at a concentration of 1 μM was prepared with the enzyme reaction buffer, and 6 μL of the mixed solution was added to each reaction well. The reaction plate was centrifuged at 1000 rpm/min for 1 minute, and incubated at room temperature for 35 minutes. After the enzyme reaction was completed, 15 μL of ADP-Glo was added to each reaction well. The reaction plate was centrifuged at 1000 rpm/min for 1 minute, and incubated at room temperature for 40 minutes. Then 15 μL of the reaction solution from each well was transferred to a 384-well plate, and then 15 μL of detection substrate was added to each corresponding well of the 384-well plate. The 384-well plate was centrifuged at 1000 rpm/min for 1 minute, and incubated at room temperature for 40 minutes. After the reaction, a microplate reader was used to read the cold luminescence signal value in the 384-well plate.
(§7) The residual viability percentage of each concentration was calculated with the following formula: Residual viability (%)=100*(Lumincompond−Luminblank control)/(Luminpostive control−Luminblank control)
(§8) Then, GraphPad 5.0 was fitted to the effect curve to calculate the IC50 value.

TRKA (G667C) = TRKA (G667C) (Homo sapiens, UniProt P04629, G667C); assay: Detection of TRK inhibitory activity (ADP-Glo kinase assay), TRKA (G667C); type: biochemical
Method: as §5, §6, §7, §8

NIH-3T3ΔTRKA G595R cells = assay: Drug Efficacy Test 1: tumor growth in Balb/c Nude mice; type: in vivo, mouse; conditions: subcutaneous NIH-3T3ΔTRKA G595R tumors, start at about 100 mm^3, FIG. 1
Method: NIH-3T3 ATRKA G595R cells are polyclonal stable transfected cell lines constructed based on TRKA mutation by our laboratory. Balb/c Nude mice, female, 6-8 weeks old, weighing 18-22 grams, were purchased from Chengdu Dashuo Experimental Animal Co., Ltd.
(§9) NIH-3T3 ATRKA G595R cells in the logarithmic growth phase were collected, counted and adjusted to a suitable cell density. 0.1 mL cell suspension (2×10^6 cells) was inoculated subcutaneously into the right back of each mouse. When the average tumor volume reached about 100 mm^3, mice were randomly divided into groups (m=6) for administrating the compound of Example 1 in solvent PEG400:HPBCD (20%, W/V) (3:1).
(§10) At the end of the experiment, all surviving experimental animals were sacrificed.
(§11) Tumor volume was calculated using formula: V=0.5 (a×b^2), wherein a and b represent the long and short diameters of the tumor, respectively.
(§12) Graph Pad Prism 6.0 was used for graph analysis.

[4] = test system: BA/F3 ETV6-NTRK3 G623R cells; assay: Drug Efficacy Test 2: tumor growth in Balb/c Nude mice; type: in vivo, mouse; conditions: subcutaneous BA/F3 ETV6-NTRK3 G623R tumors, start at about 100 mm^3, FIG. 2
Method: BA/F3 ETV6-NTRK3 G623R cells are polyclonal stable transfected cell lines constructed based on TRKA mutation by our laboratory. Balb/c Nude mice, female, 6-8 weeks old, weighing 18-22 grams, were purchased from Chengdu Dashuo Experimental Animal Co., Ltd.
as §9, with “BA/F3 ETV6-NTRK3 G623R” for “NIH-3T3 ATRKA G595R”, “in” for “in the”, “(m=5)” for “(m=6)”
as §10, §11
GraphPadPrism6.0 was used for graph analysis.

[5] = test system: BA/F3 ETV6-NTRK3 G623R cells; assay: Drug Efficacy Test 3: tumor growth in SCID mice; type: in vivo, mouse; conditions: subcutaneous BA/F3 ETV6-NTRK3 G623R tumors, start at about 300 mm^3, FIG. 3
Method: BA/F3 ETV6-NTRK3 G623R cells are polyclonal stable transfected cell lines constructed based on TRKA mutation by our laboratory. SCID mice, female, 6-8 weeks old, weighing 18-22 grams, were purchased from Chengdu Dashuo Experimental Animal Co., Ltd.
as §9, with “BA/F3 ETV6-NTRK3 G623R” for “NIH-3T3 ATRKA G595R”, “in” for “in the”, “300” for “100”, “(m=5)” for “(m=6)”
as §10, §11, §12

T1 sequence (P04629 33-796): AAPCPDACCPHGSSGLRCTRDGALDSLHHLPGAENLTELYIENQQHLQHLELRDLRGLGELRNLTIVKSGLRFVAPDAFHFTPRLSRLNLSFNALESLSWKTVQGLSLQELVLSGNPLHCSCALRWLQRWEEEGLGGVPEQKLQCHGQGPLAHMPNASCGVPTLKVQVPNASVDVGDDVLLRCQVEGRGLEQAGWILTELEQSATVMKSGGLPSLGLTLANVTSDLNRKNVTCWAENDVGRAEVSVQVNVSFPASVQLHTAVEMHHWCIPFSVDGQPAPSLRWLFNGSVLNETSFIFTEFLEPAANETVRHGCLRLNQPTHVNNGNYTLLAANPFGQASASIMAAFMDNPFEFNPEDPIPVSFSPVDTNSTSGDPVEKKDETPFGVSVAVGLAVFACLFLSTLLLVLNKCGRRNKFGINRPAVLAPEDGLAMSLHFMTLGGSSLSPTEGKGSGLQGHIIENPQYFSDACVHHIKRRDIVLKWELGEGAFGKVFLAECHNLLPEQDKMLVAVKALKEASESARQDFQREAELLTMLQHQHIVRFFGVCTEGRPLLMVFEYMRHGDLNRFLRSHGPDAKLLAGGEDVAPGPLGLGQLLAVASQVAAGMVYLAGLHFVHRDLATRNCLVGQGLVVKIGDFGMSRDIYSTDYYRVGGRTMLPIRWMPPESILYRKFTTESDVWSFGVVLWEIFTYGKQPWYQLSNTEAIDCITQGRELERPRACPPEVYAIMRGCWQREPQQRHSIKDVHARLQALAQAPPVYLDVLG
Chain of TRKA (G667C) (P04629 33-796 G667C): as the sequence (P04629 33-796) above, with G635C counted along it

| IC50 [1] | IC90 [1] | IC50 [2] | IC90 [2] | IC50 [3] | IC90 [3] | IC50 (TRKA Protein (wild type)) | IC50 (TRKA (G667C)) | SMILES | Inhibition of tumor growth (tumor volume) (NIH-3T3ΔTRKA G595R cells) | Inhibition of tumor growth (tumor volume) [4] | Inhibition of tumor growth (tumor volume) [5] |
| --- | --- | --- | --- | --- | --- | --- | --- | --- | --- | --- | --- |
| 466 nM | 843 nM | 1730 nM | 6120 nM | < 1 nM | 1.4 nM |  |  | CN1CCN(c2ccc(C(=O)Nc3n[nH]c4ccc(Cc5cc(F)cc(F)c5)cc34)c(NC3CCOCC3)c2)CC1 [RXDX-101, reference compound] |  |  |  |
| 17.3 nM | 42.3 nM | 2.5 nM | 83.2 nM | 3.8 nM | 17.1 nM | < 50 nM | < 50 nM | C[C@@H]1CCOc2ccc(F)cc2[C@H]2CCCN2c2ccc3ncc(C#N)c(c3n2)N1 [Example 1, (6R,16R)-9-fluoro-16-methyl-3-oxa-2,17,21,25-tetraazapentacyclo [16.6.2.0^2,^6.0^7,^12.0^22,^26]hexacosane-1(25),7,9,11,18(26),19,21,23-octane-19-nitrile] | inhibits the growth | inhibits the growth | inhibits the growth |
